According to patent publication US20200216906A1, “METHODS AND COMPOSITIONS RELATING TO THE DIAGNOSIS AND TREATMENT OF CANCER” (PRESIDENT AND FELLOWS OF HARVARD COLLEGE, priority 2015, published 2020):

Assays:
[1] = system: Panc02.13 cells expressing YAPS6A; assay: Gemcitabine and dFdU efflux by LC-MS/MS, Panc02.13 YAPS6A vs GFP; format: in vitro ADME, human; details: less efflux in YAPS6A after gemcitabine treatment, p<0.05
Excerpt: It was considered whether the Hippo pathway might affect the efflux of gemcitabine and/or its metabolites. To assess directly gemcitabine efflux in conditioned media of pancreatic cancer cells both radiolabeled gemcitabine and LC-MS/MS-based methods were used. Panc02.13 cells grown in highly crowded conditions (Hippo-ON) pumped out 2-3-fold more radiolabeled gemcitabine (counts per μg protein) compared with cells grown in less crowded conditions (Hippo-OFF) (FIG. 22A). Another pathway of inactivation and export is the enzymatic conversion of gemcitabine to a uracil derivative (2′,2′-difluorodeoxyuridine, dFdU) by deamination catalyzed by cytidine deaminase (CDA)(Veltkamp et al., 2008). The efflux of gemcitabine and its deaminated metabolite, dFdU was measured by LC-MS/MS (24) in Panc02.13 cells expressing YAPS6A or vector control after gemcitabine treatment (FIG. 22B).

H2052 (LATS2) cells = assay: Gemcitabine and dFdU efflux by LC-MS/MS, H2052 cells; format: in vitro ADME; details: higher in H2052 (LATS2)
Excerpt: Are defects in the Hippo pathway the major cause of gemcitabine sensitivity? […] Restoring the levels of LATS2 in H2052 cells caused an increase in the mRNA and proteins levels of ABCG2 and CDA (FIGS. 23C, 36A-36M).

[2] = system: Miapaca2-YAPS6A xenografts; assay: Mouse xenograft, Miapaca2-YAPS6A; format: in vivo; details: LC-MS/MS, p<0.01
Protocol: To assess the gemcitabine response to Hippo pathway inactivation in tumors a mouse xenograft model of pancreatic carcinoma cells and patient-derived xenograft (PDX) models from a variety of solid tumors including human cancers from non-small cell lung, esophagus, breast, mesothelium, ovary, colon, head and neck, sarcoma, and cholangiocarcinoma were used (FIG. 30). In mouse xenograft studies, two human pancreatic cancer cell lines (Miapac2 and Panc02.13) expressing GFP or YAPS6A were injected into athymic mice. Both parental or GFP expressing cells grew rapidly, producing palpable tumors in 5-10 days. When the tumors were ˜200 mm^3 (as measured using a caliper), mice were randomized into treatment and control groups. The […] received i.p. saline injections on alternate days for two weeks, and the latter received gemcitabine (20 mg/kg in Miapaca2-YAPS6A and 50 mg/Kg in Panc02.13-YAPS6A cohorts).
Tumorigenicity in Nude Mice. All in vivo experiments were performed using 6-week-old to 8-week-old athymic nude mice. Mice were maintained in laminar flow rooms with constant temperature and humidity. Miapaca2 or Panc02.13 cells were inoculated subcutaneously (s.c.) into each flank of the mice. Cells (2×10^6 in suspension) were injected on day 0, and tumor growth was followed every 2 to 3 days by tumor diameter measurements using vernier calipers. Tumor volumes (V) were calculated using the formula: V=AB2/2 (A, axial diameter; B, rotational diameter). When the outgrowths were • 200 mm^3, mice were divided at random into two groups (control and treated, n=3-8). The treated group received gemcitabine injection or saline control on alternate days (MWF) for 2 weeks.
Intra-tumor gemcitabine measurements.

[3] = system: pancreatic cancer cell lines; assay: Kinetic cell growth assay, panel of pancreatic cancer cell lines; format: cell-based, human; details: low density growth conditions (Hippo-Off); read-out: EC50 on pancreatic cancer cell growth
Protocol: (§1) The effect of gemcitabine on pancreatic cancer cell growth was studied using a kinetic cell growth assay. Pancreatic cancer cells were plated on 96-well plates (Essen ImageLock, Essen Instruments, MI, US) at varying densities (2-4×10^3 for low density or 15-20×10^3 for high density experiments). Small molecule inhibitors at different doses were added 24 hours after plating and cell confluence was monitored with Incucyte Live-Cell Imaging System and software (Essen Instruments). Confluence was observed every hour for 48-144h or until the control (DMSO only) samples reached 100% confluence.
FIG. 20A illustrates the kinetic cell growth assay to determine the effect of gemcitabine in a panel of pancreatic cancer cell lines. Cells are plated at low crowding conditions (10-25% confluence) and 24 hours later exposed to gemcitabine in a dose-dependent manner. They are imaged every 1-3 hours until control (vehicle) treated cells reach 100% confluence. This assay is not confounded by the fact that the time required for each cell line to reach 100% confluence may be very different (as the cell lines have different doubling times). A dose response effect of gemcitabine on cell growth for 16 pancreatic cancer cell lines is shown in FIGS. 20B, 3, 31A-31C and 28, where the range of previous studies is also shown. […] Similar responses to gemcitabine were found in liver cancer cell lines (Huh7 and FOCUS) and untransformed (HEK293) cell lines (FIGS. 3, 31A-31C).
as §1, with “Kinetic Cell growth assay. The” for “The”, “(2-4X103” for “(2-4×10^3”, “15-20X103” for “15-20×10^3”, “Incucyte™” for “Incucyte”

[4] = system: Panc02.13 cells with NF2 depletion; assay: High-density spheroid assay, NF2-depleted Panc02.13 cells; format: cell-based, human
Excerpt: In cells at low cell density, where YAP is localized to the nucleus, presumably YAP dependent transcription is turned on. At high density, YAP is in the cytoplasm, transcription is blocked and resistance to gemcitabine is high. Given these correlations it was asked whether inactivation of Hippo pathway could restore gemcitabine sensitivity in crowded conditions. Expression of a non-phosphorylatable form of YAP (YAPS6A) in Panc02.13 pancreatic cancer cells causes constitutive nuclear localization of exogenous YAP even at high crowding (data not shown).

CDA = CDA expression after verteporfin treatment; format: cell-based, human; details: verteporfin treatment of Panc02.13 cells, p<0.05
Protocol: Cells were serum-starved for 24 h and total cellular RNA was isolated using an RNeasy™ Mini Kit (QIAGEN, Santa Clara, Calif.). mRNA levels for the EMT-related genes were determined using the RT^2 Profiler™ qPCR array (SA Biosciences Corporation, Frederick, Md.). Briefly, 1 μg of total RNA was reverse transcribed into first strand cDNA using an RT^2 First Strand™ Kit (SA Biosciences). The resulting cDNA was subjected to qPCR using human gene-specific primers for 75 different genes, and five housekeeping genes (B2M, HPRT1, RPL13A, GAPDH, and ACTB). The qPCR reaction was performed with an initial denaturation step of 10 min at 95° C., followed by 15 s at 95° C. and 60 s at 60° C. for 40 cycles using an Mx3000P™ QPCR system (Stratagene, La Jolla, Calif.).
The activity of the Hippo pathway not only affected the efflux of gemcitabine but also its major metabolite, dFdU (FIG. 22B).
RNA extraction and quantitative real-time PCR. Cells were serum-starved for 24 h and total cellular RNA was isolated using an RNeasy Mini Kit (QIAGEN, Santa Clara, Calif.). mRNA levels for the EMT-related genes were determined using the RT2 Profiler™ qPCR array (SA Biosciences Corporation, Frederick, Md.). Briefly, 1 μg of total RNA was reverse transcribed into first strand cDNA using an RT2 First Strand Kit (SA Biosciences). […]

Panc02.13 cells = assay: 3D spheroid growth assay, Panc02.13 (GFP/parental) cells; details: read-out: EC50 in 3D-spheroid assays; 3D-spheroid (Hippo-on)
Protocol: Cancer cell lines were seeded at a 5×10^3 cells per well in a 96-well ultra-low adherence plates (Costar) and briefly spun down at 1000 rpm for 5 minutes. After 2 days, cells were treated with small molecule inhibitors at varying concentrations. Growth of spheroids was monitored using live cell imaging every 2-3 hours for 4-7 days in the Incucyte FLR™ system (Essen) or as end point assay using CellTiter-Glo™ luminescent cell viability assay (Promega).
A dose response curve for each inhibitor is calculated based on control (no inhibitor/DMSO) treated wells.
Cancer cell lines were seeded at a 5×10^3 cells per well in a 96-well ultra-low adherence plates (Costar) and briefly spun down at 1000 rpm for 5 minutes. After 2 days, cells were treated with small molecule inhibitors at varying concentrations. Growth of spheroids was monitored using live cell imaging every 2-3 hours for 4-7 days in the Incucyte ZOOM™ system (Essen) or as end point assay using CellTiter-Glo™ luminescent cell viability assay (Promega).

Compound | dFdU effluxed, YAPS6A vs GFP expressing cells [1] | Effluxed dFdU in media, H2052 (LATS2) vs parental H2052 (LATS2−/−) (H2052 (LATS2) cells) | Reduction in intra-tumor accumulation of dFdU vs parental control xenografts [2] | EC50 [3] | Sensitivity after NF2 depletion [4] | Increase in CDA levels (CDA) | EC50 (Panc02.13 cells)
O=c1ccn([C@@H]2O[C@H](CO)[C@@H](O)C2(F)F)c(=O)[nH]1 [dFdU, 2′,2′-difluorodeoxyuridine] | 5 fold | 2-3 fold | > 4 fold | – | – | – | –
verteporfin | – | – | – | < 500 nM | restored sensitivity | 3 fold | > 5000 nM
